Measured values reported in article PMC5505648 (Bioorganic & medicinal chemistry, 2017).
Blank lines part the entries; values can stand above or below the compound they belong to.

Columns and labels:
Ester-to-amide = type: physicochemical; details: for Rearrangement of ester to amide in dosing vehicle: 50% DMSO in saline; for Rearrangement of ester to amide product: polar, protic solvents / aqueous HPLC conditions
[1] = Oral bioavailability / serum pharmacokinetics study in mice; type: in vivo; details: C57Bl/6, mouse; for clearance: iv
Hairless (Hr) gene = experiment: Brain expression of Hairless; type: in vivo; details: mice, brain Hr expression ED50
[2] = in vivo

Compound: Cc1cc(OCC(=O)O)cc(C)c1Cc1ccc(O)c(C(C)C)c1 [Compound 1, Sobetirome, reference compound]
- clearance ([1]; serum, 3.05 μmol/kg): 8 mL/min/kg

Compound: CNCC(C)OC(=O)COc1cc(C)c(Cc2ccc(O)c(C(C)C)c2)c(C)c1 (centres unmarked) [Compound 7, 1-(methylamino) propan-2-yl 2-(4-(4-hydroxy-3-isopropylbenzyl)-3,5-dimethylphenoxy) acetate]
- Rearrangement of ester to amide product (Ester-to-amide): freely rearrange to their corresponding tertiary amides

Compound: 2-(methylamino)ethyl 2-(4-(4-hydroxy-3-methylbenzyl)-3,5-dimethylphenoxy)acetate [Compound 13]
- Rearrangement of ester to amide product (Ester-to-amide): freely rearrange to their corresponding tertiary amides

Continued, in another order:

- Rearrangement of ester to amide in dosing vehicle (Ester-to-amide): do not rearrange to amides
Compound: Cc1cc(OCC(=O)OC2(C(F)(F)F)CNC2)cc(C)c1Cc1ccc(O)c(C(C)C)c1 [Compound 15]
- Rearrangement of ester to amide product (Ester-to-amide): did not display rearrangement to the amide product

- Rearrangement of ester to amide in dosing vehicle (Ester-to-amide): do not rearrange to amides
Compound: Cc1cc(OCC(=O)OC(CN)C(C)C)cc(C)c1Cc1ccc(O)c(C(C)C)c1 (centres unmarked) [Compound 11, 1-amino-3-methylbutan-2-yl 2-(4-(4-hydroxy-3-isopropylbenzyl)-3,5-dimethylphenoxy)acetate]
- Rearrangement of ester to amide product (Ester-to-amide): did not display rearrangement to the amide product

- Amount of sobetirome from cleavage of 3 in blood, oral vs intravenous dosing ([1]; in vivo): 2.4 fold
- clearance ([1]; in vivo): 28 mL/min/kg
- Species in chromatogram on re-sampling the same solution (Ester-to-amide; aqueous HPLC sample, approximately 30 minutes later): showed only the amide 3b
- Fraction of ester converted to amide (Ester-to-amide; aqueous HPLC sample/run conditions, within 5 minutes of running): approximately 25%
- Fold increase of sobetirome exposure (AUC) in brain vs equimolar sobetirome ([2]; male, C57Bl/6, mouse): ~ 2 fold
- Fold reduction of parent drug exposure in heart vs equimolar sobetirome ([2]; male, C57Bl/6, mouse): ~ 3 fold
- Fold reduction of parent drug exposure in kidney vs equimolar sobetirome ([2]; male, C57Bl/6, mouse): ~ 2 fold
- Fold reduction of parent drug exposure in liver vs equimolar sobetirome ([2]; male, C57Bl/6, mouse): ~ 2 fold
- Fold reduction of parent drug exposure in serum vs equimolar sobetirome ([2]; male, C57Bl/6, mouse): ~ 3.5 fold
- Time of Cmax / Tmax in all tissues analyzed ([2]; mouse, ip): 15 to 30 min
Compound: Cc1cc(OCC(=O)O[C@@H](C)CN)cc(C)c1Cc1ccc(O)c(C(C)C)c1 [Compound 3, (S)-1-aminopropan-2-yl 2-(4-(4-hydroxy-3-isopropylbenzyl)-3,5-dimethylphenoxy)acetate]
- Fold increase in potency compared to sobetirome (Hairless (Hr) gene): ~2 fold

- Rearrangement of ester to amide in dosing vehicle (Ester-to-amide): do not rearrange to amides
Compound: CNCC(OC(=O)COc1cc(C)c(Cc2ccc(O)c(C(C)C)c2)c(C)c1)C(C)C (centres unmarked) [Compound 12, 3-methyl-1-(methylamino)butan-2-yl 2-(4-(4-hydroxy-3-isopropylbenzyl)-3,5-dimethylphenoxy)acetate]
- Rearrangement of ester to amide product (Ester-to-amide): did not display rearrangement to the amide product
